Laboratory results: article PMC5495814, “The impact of the butterfly effect on human parainfluenza virus haemagglutinin-neuraminidase inhibitor design” (Scientific Reports, 2017)
Where “and” joins values, the source holds several entries; their conditions need not be identical. Identical values can stand only once. Like-named read-outs stand apart in the source and are kept apart here.

Legend:
[1] = target: hPIV-3 HN neuraminidase function (Human parainfluenza 3 virus, UniProt P08492); assay: biochemical; design: species or system human parainfluenza virus type 3 (hPIV-3, strain C-243); conditions: for IC50: NI IC50, purified hPIV-3, MUN substrate, pH 4.6, means of 3 independent experiments
[2] = target: hPIV-3 HN haemagglutinin function (Human parainfluenza 3 virus, UniProt P08492); assay: cell-based; design: species or system human parainfluenza virus type 3 (hPIV-3); conditions: HI IC50, human red blood cells, 4 °C, 90 min
Procedure: The HN inhibitors were assessed in haemagglutination inhibition assays using human red blood cells (RBC) as previously described[10] with minor modifications. The lowest final concentration of hPIV-3 that leads to a complete agglutination of human-RBC at 4 °C is considered as 1 HAU. 4 haemagglutination units (HAU) of hPIV-3 (final 1 HAU per well) were pre-mixed with inhibitors of each tested concentration (4X dilution in PBS) on ice. Next, an equivalent volume of ice-cold 1% human-RBC in PBS was added to each well of the inhibitor/virus pre-mixture and the plate was then incubated for 90 min at 4 °C before determining the extent of haemagglutination inhibition.

[3] = target: T1, human neuraminidase 2 (hNeu2) (Homo sapiens, UniProt Q9Y3R4); assay: NI assay with recombinant human neuraminidase 2; assay type: biochemical; conditions: inhibitors tested 0.001 μM to 1000 μM, 0.5 mM MUN, pH 5.5
T1 construct: GST (own knowledge: pGEX-2T encodes an N-terminal GST with a thrombin site); made in house; host or cells: E. coli
Procedure: Finally, all inhibitors were assessed for cytotoxicity to human A549 cells with no toxicity observed at a concentration of 300 µM (data not shown). In addition, we investigated[9] the capacity of the synthesized inhibitors 5–8 to inhibit human neuraminidase 2 (hNeu2) compared with the well-described neuraminidase inhibitor Neu5Ac2en (2)[28].
The NI assay with human Neuraminidase 2 (hNeu2) was performed as previously described, using 60 ng of purified hNeu2 enzyme in reaction buffer/hNeu2 (NaOAc 50 mM, pH 5.5), supplemented with 10 μg BSA and 0.5 mM MUN per reaction. All inhibitors were tested in duplicate in the concentration range from 0.001 μM to 1000 μM. After 10 min of incubation with agitation (1000 rpm) at 37 °C, the enzymatic reaction was stopped with glycine buffer (glycine 0.25 M, pH 10.4) and the product fluorescence was measured in relative fluorescence units (RFU) using a Victor 3 multilabel reader (PerkinElmer, Waltham, MA). Controls were conducted with MUN and purified hNeu2, the enzymatic reaction was stopped at t = 0 for the negative control and at t = 10 min for the positive control.
The obtained data were normalised by background (negative control RFU) subtraction and processed data were analyzed with GraphPadPrism 4 (GraphPad Software Inc., La Jolla, CA) to calculate IC50 values. The concentration of inhibitor that reduced the neuraminidase activity by 50% compared to those of a non-treated virus/protein suspension was considered as the NI IC50 value.

hPIV-3 = assay: Virus growth inhibition by in situ ELISA in A549 cells
soluble hPIV-3 HN = target: soluble hPIV-3 HN; design: method as in PMID 23740997; conditions: in complex with soluble hPIV-3 HN; cited from earlier work
[4] = Human respirovirus 3, A549, in Homo sapiens, read-out: Virus growth inhibition IC50, in situ ELISA, human cell line A549, 36–40 h
[5] = read-out: Virus growth inhibition IC50, in situ ELISA, human cell line A549, 36–40 h

T1 sequence (Q9Y3R4 whole entry): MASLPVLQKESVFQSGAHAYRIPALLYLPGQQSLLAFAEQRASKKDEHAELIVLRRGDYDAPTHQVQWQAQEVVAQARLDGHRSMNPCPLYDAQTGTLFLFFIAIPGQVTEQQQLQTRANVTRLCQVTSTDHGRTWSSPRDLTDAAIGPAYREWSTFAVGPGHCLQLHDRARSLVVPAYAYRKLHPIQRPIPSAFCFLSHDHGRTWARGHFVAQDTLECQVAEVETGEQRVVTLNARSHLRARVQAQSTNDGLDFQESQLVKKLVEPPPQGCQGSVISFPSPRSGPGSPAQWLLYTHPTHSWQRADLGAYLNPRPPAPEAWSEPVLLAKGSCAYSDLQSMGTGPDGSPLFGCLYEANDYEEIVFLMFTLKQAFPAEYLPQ
Chain of hPIV-3 HN haemagglutinin function (P08492 whole entry): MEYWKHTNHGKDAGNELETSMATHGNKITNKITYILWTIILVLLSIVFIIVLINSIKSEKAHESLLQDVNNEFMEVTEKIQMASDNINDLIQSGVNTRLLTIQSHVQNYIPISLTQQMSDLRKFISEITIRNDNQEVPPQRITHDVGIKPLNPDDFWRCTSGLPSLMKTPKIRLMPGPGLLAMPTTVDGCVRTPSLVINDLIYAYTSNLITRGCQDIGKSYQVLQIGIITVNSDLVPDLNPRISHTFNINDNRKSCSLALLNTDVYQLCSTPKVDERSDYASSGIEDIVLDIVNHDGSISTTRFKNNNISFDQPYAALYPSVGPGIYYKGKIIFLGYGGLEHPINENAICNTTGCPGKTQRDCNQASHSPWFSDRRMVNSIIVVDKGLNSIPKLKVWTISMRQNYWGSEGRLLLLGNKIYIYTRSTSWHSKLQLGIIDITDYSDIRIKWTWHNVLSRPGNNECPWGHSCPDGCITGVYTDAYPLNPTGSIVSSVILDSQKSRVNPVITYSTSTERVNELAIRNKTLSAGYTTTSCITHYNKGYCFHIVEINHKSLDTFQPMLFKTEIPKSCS
Chain of hPIV-3 HN neuraminidase function (P08492 whole entry): as above

Compound | IC50 [1] | IC50 [2] | Inhibition of hNeu2 [3] | IC50 (hPIV-3; [4]) [µM] | IC50 (hPIV-3; [5]) [µM] | Kd (soluble hPIV-3 HN) [mM] | increase in potency (NI) compared to Neu2en analogue 6 ([1]; NI IC50 of 8 versus 6) [fold]
COCc1cn([C@H]2C=C(C(=O)O)O[C@@H]([C@H](O)[C@H](O)CO)[C@@H]2NC(=O)C(C)C)nn1 [Inhibitor 6, reference compound] | 14.5 µM | 3.88 µM and 3.9 µM | No inhibition | 82.4 ± 7.7 | 82.4 | – | –
Neu5Acα2–3 Galβ1–4GlcNAcβ1–3 Galβ1–4GlcNAc [3′SiaDiLN] | – | – | – | – | – | 4.3 | –
CC(C)C(=O)N[C@H]1[C@H]([C@H](O)[C@H](O)CO)OC(C(=O)O)=C[C@@H]1n1cc(-c2ccccc2)nn1 [Inhibitor 5, reference compound] | – | – | No inhibition | 11.2 ± 0.9 | 11.2 | – | –
COCc1cn([C@@H]2[C@@H](NC(=O)C(C)C)[C@H]([C@H](O)[C@H](O)CO)O[C@@](F)(C(=O)O)[C@H]2F)nn1 [Inhibitor 8] | 6.7 µM and 6.75 µM | 57 µM | No inhibition | 14.3 ± 0.3 | 14.3 | – | 2
CC(C)C(=O)N[C@H]1[C@H]([C@H](O)[C@H](O)CO)O[C@@](F)(C(=O)O)[C@@H](F)[C@@H]1n1cc(-c2ccccc2)nn1 [Inhibitor 7] | 55.3 µM | 775 µM | No inhibition | 40.1 ± 7 | 40.1 | – | –
